Data published in US12268665B2, “Combination of immunotherapies with MDM2 inhibitors” (ASCENTAGE PHARMA (SUZHOU) CO., LTD., priority 2018, dated 2025).
Like-named read-outs stand apart in the source and are kept apart here.

Columns and labels:
[1] = system: MH-22A murine hepatoma syngeneic model; assay: In vivo efficacy study in MH-22A model; parameters: species or system mouse
Procedure: Tumor volumes were measured twice weekly in two dimensions using a caliper, and the volume was expressed in mm^3 using the formula: Tumor Volume(mm^3)=0.5a×b^2 where a and b are the long and short diameters of the tumor, respectively.
Relative tumor volume (RTV) was calculated using the following formula: RTV=Vt/V1 Where V1 and Vt are the average tumor volumes on the first day of treatment (day 1) and the average tumor volumes on a certain time point (day t).
Synergy score was calculated using the following formula (Clarke R, Breast Cancer Research & Treatment, 1997, 46(2-3):255-278): Synergy score=((A/C)×(B/C))/(AB/C); A: response to treatment A; B: response to treatment B; C: response to vehicle control; AB: combination of treatment A and B.
Standard NCI procedures were used to calculate tumor parameters. Percent tumor growth inhibition (% T/C) was calculated as the mean RTV of treated tumors (T) divided by the mean RTV of control tumors (C)×100%. The percentage T/C value is an indication of antitumor effectiveness: a value of T/C<42% is considered significant antitumor activity by the NCI. A T/C value <10% is considered to indicate highly significant antitumor activity, and is the level used by the NCI to justify a clinical trial if toxicity and certain other requirements are met (termed DN-2 level activity). A body weight loss nadir (mean of group) of greater than 20%, or greater than 20% of drug deaths are considered to indicate an excessively toxic dosage.
(§1) Each mouse was inoculated subcutaneously at the right flank region with MH-22A tumor cells (5×10^6) in 0.2 mL of PBS for tumor development. The treatments were initiated when the mean tumor size reached ˜65 mm^3. The test articles were administered to the tumor-bearing mice according to the regimen shown in the experimental design Table 3. The day of start dosing was defined as d1.

[2] = system: MH-22A syngeneic tumor model; assay: Efficacy in the TIL analysis study, MH-22A model (d7); assay type: in vivo, mouse; conditions: APG-115 10 mg/kg p.o. q2d; anti-PD-1 5 mg/kg i.p. biw; epacadostat 100 mg/kg p.o. bid; × 6 d
Procedure: as §1, with “were started” for “were initiated”, “reached 60” for “reached ˜65”, “Table 6.” for “Table 3.”
Mice bearing MH-22A murine hepatoma tumors were treated with various agent(s) under different regimens as indicated. Isotype control antibody was included in the control.

[3] = Pharmacokinetic (PK) analysis in MH-22A tumor-bearing mice (LC/MS/MS); assay type: in vivo, mouse; conditions: mouse; for concentration at 4 h: oral, 100 mg/kg
Procedure: The quantitative LC/MS/MS analysis was conducted using an Exion HPLC system (AB Sciex, Ontario, Canada) coupled to an API 5500 mass spectrometer (AB Sciex, Ontario, Canada) equipped with an API electrospray ionization (ESI) source. The Phenomenex Titank phenyl-Hexyl column (50 mm×2.1 mm, 5 μm particle size) was used to achieved HPLC separation. The injection volume was 2 μl and the flow rate was kept constantly at 0.5 ml/min. Chromatography was performed with mobile phase A, acetonitrile:water:formic (5:95:0.1, by volume) and B, acetonitrile:water:formic (95:5:0.1, by volume). The mass spectrometer was operated at ESI positive ion mode for APG-115 while ESI negative mode for epacadostat. The detection of the ions was performed in the multiple reaction monitoring (MRM) mode, monitoring the transition of m/z 642.0→246.1 and 271.1→172.0 for APG-115 and IS (tolbutamide) in positive mode, 435.9→338.8 and 269.2→169.2 for epacadostat and IS (tolbutamide) in negative mode, respectively. Compounds parameters, declustering potential (DP), collision energy (CE) were 51, 61 V, 80, 18 V for APG-115 and IS in positive mode, −61, −15 V and −90, −23.5 V for epacadostat and IS in negative mode, respectively.
Blood and tumor samples were collected from 5 mice/group in group-1, group-2, group-3 and group-5 4 hrs after the final dose on […]. Blood samples were collected from 5 mice/group in group-4, group-6, group-7 and group-8 4 hrs after the final dose on d29. Approximately 100 μl blood were collected in EDTA-2K tube and 50 μl plasma were collected for PK analysis. All samples were stored at −80° C. until analysis.
In efficacy study of Example 2.1, mice in vehicle, APG-115 10 mg/kg and 50 mg/kg, and epacadostat single-agent groups were euthanized on d15 as described above. To assess PK characteristics of APG-115 and epacadostat in this study, plasma and tissue samples were collected 4 h after the last dosing on d15.

[4] = APG-115 10 mg/kg p.o. qd, anti-PD-1 10 mg/kg i.p. biw, epacadostat 100 mg/kg p.o. bid

pharmacokinetic interaction with anti-PD-1 antibody ([3]; in vivo): no apparent pharmacokinetic interaction
concentration at 4 h ([3]; plasma, 100 mg/kg daily oral, alone, read-out: plasma concentration of epacadostat): 5890 ng/mL
concentration at 4 h ([3]; plasma, 100 mg/kg daily oral, combined with anti-PD-1, read-out: plasma concentration of epacadostat): 8620 ng/mL
concentration at 4 h ([3]; tumor, 100 mg/kg dosed alone, read-out: epacadostat concentration in tumor): 9260 ng/g
SMILES: NS(=O)(=O)NCCNc1nonc1C(=NO)Nc1ccc(F)c(Br)c1 [epacadostat, reference compound]
RTV (Mean ± SEM) d15 [1, 4]: 49.1 ± 5.8
T/C (%) d15 [1, 4]: 128%
Response rate (%) d15 ([1]; APG-115 10 mg/kg, anti-PD-1 10 mg/kg, epacadostat 100 mg/kg, n=10): 0%
antitumor activity as single agents ([1]; APG-115 10 and 50 mg/kg, epacadostat 100 mg/kg): did not exert antitumor activity
RTV (Mean) d7 [2]: 12.7
T/C (%) d7 [2]: 82%
